Experimental data as given in ChEMBL document CHEMBL1143923, “Synthesis, anti-HIV-1 activity, and modeling studies of N-3 Boc TSAO compound” (Bioorg Med Chem Lett, 2008).
The source made the active and inactive calls. The rule behind the calls is not given here.

Experiments:
[1] = tested on: Human immunodeficiency virus 2; test: Antiviral activity against HIV2 ROD in CEM cells assessed as inhibition of viral replication; assay type: functional, organism-based; conditions: CCRF-CEM
[2] = tested on: Human immunodeficiency virus 1; test: Antiviral activity against HIV1 3B in CEM cells assessed as inhibition of viral replication; assay type: functional, organism-based; conditions: Human immunodeficiency virus 1, 3B, CCRF-CEM
[3] = Cytotoxicity against human CEM cells; assay type: cell-based; conditions: CEM (CCRF-CEM) cells

SMILES | Activity [1] | EC50 [2] | CC50 [3]
Cc1cn([C@@H]2O[C@H](CO[Si](C)(C)C(C)(C)C)[C@@]3(OS(=O)(=O)C=C3N)[C@H]2O[Si](C)(C)C(C)(C)C)c(=O)[nH]c1=O | inactive | 60 nM | 
Cc1cn([C@@H]2O[C@H](CO[Si](C)(C)C(C)(C)C)[C@@]3(OS(=O)(=O)C=C3N)[C@H]2O[Si](C)(C)C(C)(C)C)c(=O)n(C)c1=O | inactive | 130 nM | 
Cc1cn([C@@H]2O[C@H](CO[Si](C)(C)C(C)(C)C)[C@@]3(OS(=O)(=O)C=C3N)[C@H]2O[Si](C)(C)C(C)(C)C)c(=O)n(C(=O)OC(C)(C)C)c1=O | inactive | 23 nM | 26200 nM
